Consider 22 molecules from patent US5760063A, “Arylhydrazone derivatives useful as antibacterial agents” (Scriptgen Pharmaceuticals, Inc., priority 1996, dated 1998).

SMILES strings stand for the structures. Values after ≈ are worked out from the molar mass of the structure shown.

In experiment [1] the target is E. coli RNAP (Escherichia coli, UniProt P0A8T7+P0A8V2). The experiment in a line: High throughput in vitro transcription (RNAP) assay. The format is biochemical. Particulars: 60 minutes incubation. As to the method:
(I) High Throughput in vitro Transcription (RNAP) Assay
The reagents are added to the DMSO/compound with a Tomtec Quadra. The Quadra acts as 96-tip pipetman, combined with a movable base. The reagents and compounds are stored and used in 96-well polypropylene u-bottom microtiter plates.
The Quadra is run in backfill mode (filled with water). A total of […] of reagents must be added. This is divided into a 20 ml RNAP/Txn Buffer mix and a 25 ml DNA/NTP/water mix. The RNAP mix is added first to allow the drug a chance to interact with RNAP before RNAP interacts with DNA (this interaction lasts less than 5 seconds). The mixing of the reagents is done with a multivortexer after all reagents have been added (setting 5.5 for 90 seconds).
After incubation for 60 minutes, the reaction is stopped with 150 ml 10% TCA, which also precipitates the RNA. The RNA is allowed to sit a room temperature for approximately 15-45 minutes (until all plates have been stopped and the cell harvester has been set up).
The TCA precipitated RNA is transferred to double-thick glass filtermats using a Tomtec cell harvester. The wells of the microtiter plate are washed with 5% TCA and sucked through the same filtermat. Two additional washes with 5 % TCA solution are sufficient to reduce background counts.
The filters are then dried at 60° for 60 minutes. It is important to remove all of the liquid, or this may quench the scintillation fluid when it is added.
The dry filters are sealed into plastic bags with a heat-sealer. A hole is cut in one corner and 12 ml of "β-plate scintillant" is added to each bag.
When choosing a scintillation counting program on the Wallac Microb 1450, it is important to choose one which counts using the appropriate window for P^32. Each well is counted for 3 seconds. The data obtained is used to calculate an lC50 value.

Experiment [2] has as its system S. aureus. Put plainly: MIC assay, S. aureus. Particulars: Staphylococcus aureus, 18 h, read-out: S. Aur. MIC. The format is cell-based. As to the method:
(§1) Compounds were prepared to a concentration of 10 mM in 100% DMSO. These were then diluted to 200 μM with 50 mM tris. A 2% DMSO solution was prepared in 50 mM tris as well as a 20 μM solution of rifampicin in 2% DMSO with 50 mM tris. With each compound and control, one to one dilutions were made in a serial dilution fashion across microtiter plates with 50 mM tris. The highest concentration was 200 μM for each compound and 20 μM for rifampicin. The lowest concentrations were 1.562 μM and 0.156 μM for the compounds and rifampicin respectively.
(§2) S. aureus, E. coli, Psuedomonas aeruginosa, Enterobacter cloacae, and Enterococcus faecium cells had been grown up in a shake culture overnight at 37° C. in LB medium. These were diluted 500 fold and added to the compounds at an equal volume. The highest compound concentration was now 100 μM, and 10 μM for rifampicin. Baseline O.D. readings were taken at 595 nm utilizing a Bio-Rad 3550-UV plate reader. A second reading was taken after 18 hours.

Experiment [3] concerns Psuedomonas aeruginosa. Put plainly: MIC assay, Psuedomonas aeruginosa (PS). The format is cell-based. The note with it: OD 595 nm after 18 hours. How it is done:
as §1, §2

Experiment [4] concerns Enterococcus faecium. Put plainly: MIC assay, Enterococcus faecium (FAE). The format is cell-based. The note with it: OD 595 nm after 18 hours. As to the method: as §1, §2
Experiment [5] has as its system Enterobacter cloacae. Put plainly: MIC assay, Enterobacter cloacae (CL). Format: cell-based. The note with it: OD 595 nm after 18 hours. How it is done:
as §1, §2

E. coli RNAP, sequence (P0A8V2 whole entry): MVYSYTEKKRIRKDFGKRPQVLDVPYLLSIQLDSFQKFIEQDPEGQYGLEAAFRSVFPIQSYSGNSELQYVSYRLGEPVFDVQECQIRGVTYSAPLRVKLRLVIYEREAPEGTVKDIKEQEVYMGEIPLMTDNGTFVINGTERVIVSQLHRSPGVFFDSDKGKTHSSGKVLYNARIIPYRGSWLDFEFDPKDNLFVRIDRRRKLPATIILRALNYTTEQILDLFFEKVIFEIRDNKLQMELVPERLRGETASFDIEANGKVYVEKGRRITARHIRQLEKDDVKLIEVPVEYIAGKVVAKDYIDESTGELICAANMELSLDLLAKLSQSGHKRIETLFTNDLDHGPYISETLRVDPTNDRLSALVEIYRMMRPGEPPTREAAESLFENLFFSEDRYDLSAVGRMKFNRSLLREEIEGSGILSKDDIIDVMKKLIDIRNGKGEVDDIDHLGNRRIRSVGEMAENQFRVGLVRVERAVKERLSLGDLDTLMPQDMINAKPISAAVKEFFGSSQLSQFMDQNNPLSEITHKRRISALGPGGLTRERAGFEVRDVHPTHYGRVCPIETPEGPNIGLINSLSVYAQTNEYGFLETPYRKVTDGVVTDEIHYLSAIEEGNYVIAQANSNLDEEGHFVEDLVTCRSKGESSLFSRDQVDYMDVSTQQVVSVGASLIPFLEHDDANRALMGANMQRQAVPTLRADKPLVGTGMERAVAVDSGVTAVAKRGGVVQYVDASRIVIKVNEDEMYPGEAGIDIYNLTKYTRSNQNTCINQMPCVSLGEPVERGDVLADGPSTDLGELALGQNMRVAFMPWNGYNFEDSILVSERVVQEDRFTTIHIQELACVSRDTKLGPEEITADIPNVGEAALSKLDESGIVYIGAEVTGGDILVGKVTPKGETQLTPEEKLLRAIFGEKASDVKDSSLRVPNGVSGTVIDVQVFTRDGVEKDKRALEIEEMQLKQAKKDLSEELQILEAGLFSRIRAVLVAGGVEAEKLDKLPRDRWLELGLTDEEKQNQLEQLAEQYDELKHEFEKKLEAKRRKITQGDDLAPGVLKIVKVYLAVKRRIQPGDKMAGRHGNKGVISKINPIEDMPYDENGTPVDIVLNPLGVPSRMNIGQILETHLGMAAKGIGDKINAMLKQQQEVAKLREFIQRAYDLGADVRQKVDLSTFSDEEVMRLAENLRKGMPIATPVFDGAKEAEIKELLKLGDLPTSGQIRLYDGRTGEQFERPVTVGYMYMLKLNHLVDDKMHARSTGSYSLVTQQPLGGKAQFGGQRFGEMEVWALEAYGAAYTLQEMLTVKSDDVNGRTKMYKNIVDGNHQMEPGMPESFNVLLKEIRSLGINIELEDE
E. coli RNAP, sequence (P0A8T7 whole entry): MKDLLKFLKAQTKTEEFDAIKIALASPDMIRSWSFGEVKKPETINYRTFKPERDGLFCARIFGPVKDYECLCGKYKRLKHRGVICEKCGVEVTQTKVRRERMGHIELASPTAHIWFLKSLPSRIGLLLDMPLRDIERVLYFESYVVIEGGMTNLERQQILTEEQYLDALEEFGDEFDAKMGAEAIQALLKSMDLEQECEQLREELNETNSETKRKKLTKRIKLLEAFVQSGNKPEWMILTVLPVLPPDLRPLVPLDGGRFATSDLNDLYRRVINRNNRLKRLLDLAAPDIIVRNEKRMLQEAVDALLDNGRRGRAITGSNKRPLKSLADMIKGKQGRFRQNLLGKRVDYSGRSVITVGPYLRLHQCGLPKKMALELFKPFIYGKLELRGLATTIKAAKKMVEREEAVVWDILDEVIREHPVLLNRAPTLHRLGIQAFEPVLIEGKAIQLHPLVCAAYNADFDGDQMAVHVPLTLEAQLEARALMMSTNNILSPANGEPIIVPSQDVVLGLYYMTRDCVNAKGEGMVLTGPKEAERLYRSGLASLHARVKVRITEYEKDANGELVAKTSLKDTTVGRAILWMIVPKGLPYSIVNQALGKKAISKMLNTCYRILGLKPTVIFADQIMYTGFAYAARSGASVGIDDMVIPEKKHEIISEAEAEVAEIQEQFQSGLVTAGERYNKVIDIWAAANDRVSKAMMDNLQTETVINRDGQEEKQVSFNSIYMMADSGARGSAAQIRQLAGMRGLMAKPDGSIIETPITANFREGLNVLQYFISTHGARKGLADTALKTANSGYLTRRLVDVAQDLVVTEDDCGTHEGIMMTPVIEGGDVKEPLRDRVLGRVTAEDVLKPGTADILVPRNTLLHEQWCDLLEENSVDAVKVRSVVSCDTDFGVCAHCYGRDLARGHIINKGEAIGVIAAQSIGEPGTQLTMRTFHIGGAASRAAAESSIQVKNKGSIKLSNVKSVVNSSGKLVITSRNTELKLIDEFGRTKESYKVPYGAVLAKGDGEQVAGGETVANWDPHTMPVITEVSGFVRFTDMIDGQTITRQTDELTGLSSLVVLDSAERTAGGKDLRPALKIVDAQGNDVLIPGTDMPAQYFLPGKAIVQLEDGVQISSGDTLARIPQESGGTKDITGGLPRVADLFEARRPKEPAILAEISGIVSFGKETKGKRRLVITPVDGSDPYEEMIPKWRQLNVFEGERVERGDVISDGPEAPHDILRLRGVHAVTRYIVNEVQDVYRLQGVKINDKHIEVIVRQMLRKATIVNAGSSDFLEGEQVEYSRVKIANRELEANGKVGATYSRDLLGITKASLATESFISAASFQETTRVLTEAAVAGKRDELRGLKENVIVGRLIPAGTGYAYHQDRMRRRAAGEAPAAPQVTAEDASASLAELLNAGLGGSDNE
E. coli RNAP, sequence (P0A7Z4 whole entry partner): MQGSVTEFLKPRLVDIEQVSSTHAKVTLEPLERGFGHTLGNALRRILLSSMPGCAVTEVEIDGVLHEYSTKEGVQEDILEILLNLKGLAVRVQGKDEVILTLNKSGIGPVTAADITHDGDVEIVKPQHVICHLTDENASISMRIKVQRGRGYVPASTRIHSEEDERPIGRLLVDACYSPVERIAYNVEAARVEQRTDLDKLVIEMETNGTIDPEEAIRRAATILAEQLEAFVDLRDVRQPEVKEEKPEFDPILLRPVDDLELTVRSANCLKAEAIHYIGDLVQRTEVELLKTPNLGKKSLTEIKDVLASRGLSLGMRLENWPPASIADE

As a reminder, the IC50 is the concentration needed to halve the response being measured. Read a high IC50 as a need for much substance. For orientation: MIC means the lowest concentration that inhibits growth of the organism. For `CS(=O)(=O)c1ccc(NN=C(C#N)C(=O)c2ccc(Cl)cc2)cc1` [Example 1], in experiment [1], the 50% inhibitory concentration (IC50) is below 0.5 µM. Further, the MIC was above 10 µM in experiment [2], above 10 µM in experiment [3], above 10 µM in experiment [4] and below 0.5 µM in experiment [5].

Take `CS(=O)(=O)C(=NNc1ccc([N+](=O)[O-])cc1)C(=O)c1ccc(Cl)cc1` [Example 2]: in experiment [1], the IC50 lay within 0.5 to 10 µM. Further, the MIC is above 10 µM in experiment [3], above 10 µM in experiment [4] and 0.5 to 10 µM (≈ 0.191 to 3.82 µg/mL) in experiment [5].

`CC(=O)N(N=C(C#N)C(=O)c1ccc(Cl)cc1)c1ccc([N+](=O)[O-])cc1` [Example 3] displayed an IC50 in experiment [1] of 0.5 to 10 µM. In addition, the MIC in experiment [2] is above 10 µM; in experiment [3], above 10 µM; in experiment [4] it was above 10 µM; in experiment [5] it was 0.5 to 10 µM (≈ 0.185 to 3.71 µg/mL).

`CSc1ccc(NN=C(C#N)C(=O)c2ccc(Cl)cc2)cc1` [Example 4] displayed a half-maximal inhibitory concentration (IC50) in experiment [1] of 0.5 to 10 µM. The MIC is above 10 µM in experiment [2], above 10 µM in experiment [3], above 10 µM in experiment [4] and 0.5 to 10 µM (≈ 0.165 to 3.3 µg/mL) in experiment [5].

In experiment [1], `C[S+]([O-])c1ccc(NN=C(C#N)C(=O)c2ccc(Cl)cc2)cc1` (stereo not shown) [Example 5] returned a half-maximal inhibitory concentration (IC50) of 0.5 to 10 µM. Further, the MIC is above 10 µM in experiment [2], above 10 µM in experiment [3], above 10 µM in experiment [4] and 0.5 to 10 µM (≈ 0.173 to 3.46 µg/mL) in experiment [5].

`N#CC(=NNc1ccc([N+](=O)[O-])cc1)C(=O)c1ccc(-c2ccccc2)cc1` [Example 6] gave an IC50 in experiment [1] of 0.5 to 10 µM. Moreover, the MIC in experiment [2] was above 10 µM; in experiment [3] it was above 10 µM; in experiment [4], 1 µM (≈ 0.37 µg/mL); in experiment [5] it was 0.5 to 10 µM (≈ 0.185 to 3.7 µg/mL).

As to `CS(=O)(=O)Nc1ccc(NN=C(C#N)C(=O)c2ccc(Cl)cc2)cc1` [Example 7], the IC50 in experiment [1] is 0.5 to 10 µM. The MIC is above 10 µM in experiment [3], above 10 µM in experiment [4] and 0.5 to 10 µM (≈ 0.188 to 3.77 µg/mL) in experiment [5].

In experiment [1], `N#CC(=NNc1ccc([N+](=O)[O-])cc1)C(=O)c1ccc(Cl)nc1` [Example 8] had a half-inhibitory concentration (IC50) of 0.5 to 10 µM.

Turning to `N#CC(=NNc1ccc(C(=O)O)cc1)C(=O)c1ccc(Cl)cc1` [Example 9], the half-inhibitory concentration (IC50) in experiment [1] was above 10 µM. The MIC in experiment [3], in experiment [4] and in experiment [5] was above 10 µM throughout.

`CC(=O)Nc1ccc(NN=C(C#N)C(=O)c2ccc(Cl)cc2)cc1` [Example 10] yielded an IC50 in experiment [1] above 10 µM. Also, the MIC in experiment [3], in experiment [4] and in experiment [5] was above 10 µM each time.

Turning to `CS(=O)(=O)c1ccc(NN=C(C#N)C(=O)c2ccc(-c3ccccc3)cc2)cc1` [Example 11], the half-maximal inhibitory concentration (IC50) in experiment [1] was above 10 µM. Also, the MIC in experiment [3], in experiment [4] and in experiment [5] was above 10 µM each time.

Consider `N#CC(=NNc1ccc(Cl)cc1)C(=O)c1ccc(-c2ccccc2)cc1` [Example 13], for which the IC50 in experiment [1] was above 10 µM. Also, the minimal inhibitory concentration (MIC) in experiment [2], in experiment [3], in experiment [4] and in experiment [5] was above 10 µM each time.

Molecule `CC(=O)N(N=C(C#N)C(=O)c1ccc(Cl)cc1)c1ccc(Cl)cc1` [Example 14] gave a concentration for half-maximal inhibition (IC50) in experiment [1] above 10 µM. The MIC in experiment [2] is above 10 µM; in experiment [3], above 10 µM; in experiment [4], above 10 µM; in experiment [5], 0.5 to 10 µM (≈ 0.18 to 3.6 µg/mL).

`Cc1c(C(=O)C(C#N)=NNc2ccc([N+](=O)[O-])cc2)sc2ccc(Cl)cc12` [Example 15]: the IC50 in experiment [1] is below 0.5 µM. For the same molecule, the MIC was above 10 µM in experiment [2], above 10 µM in experiment [3], 0.5 to 10 µM (≈ 0.199 to 3.99 µg/mL) in experiment [4] and below 0.5 µM in experiment [5].

On to `Cc1c(C(=O)C(C#N)=NNc2ccc(C(C)C)cc2)sc2ccc(Cl)cc12` [Example 16], for which the IC50 in experiment [1] was in the range of 0.5 to 10 µM. Further, the minimal inhibitory concentration (MIC) in experiment [2] was above 10 µM; in experiment [3], above 10 µM; in experiment [4] it was above 10 µM; in experiment [5] it was 0.5 to 10 µM (≈ 0.198 to 3.96 µg/mL).

Molecule `N#CC(=NNc1ccc([N+](=O)[O-])cc1)C(=O)c1ccc(Cl)cc1` [Example 17, 2-(4-nitrophenyl)hydrazono-3-oxo-3-(4-chlorophenyl)propionitrile] showed an IC50 in experiment [1] below 0.5 µM. The MIC is 0.5 to 10 µM (≈ 0.164 to 3.29 µg/mL) in experiment [2], above 10 µM in experiment [3], below 0.5 µM in experiment [4] and below 0.5 µM in experiment [5].

On to `N#CC(=NNc1ccc(OC(F)(F)F)cc1)C(=O)c1ccc(Cl)cc1` [Example 18], for which the half-inhibitory concentration (IC50) in experiment [1] lay in the range of 0.5 to 10 µM. The MIC in experiment [2] is 0.5 to 10 µM (≈ 0.184 to 3.68 µg/mL); in experiment [3], above 10 µM; in experiment [4], 0.5 to 10 µM (≈ 0.184 to 3.68 µg/mL); in experiment [5], 0.5 to 10 µM (≈ 0.184 to 3.68 µg/mL).

Turning to `N#CC(=NNc1ccc(Cl)cc1)C(=O)c1ccc(Cl)cc1` [Example 19], in experiment [1], the IC50 is 0.5 to 10 µM. Besides, the MIC in experiment [2] is above 10 µM; in experiment [3], above 10 µM; in experiment [4] it was above 10 µM; in experiment [5], 0.5 to 10 µM (≈ 0.159 to 3.18 µg/mL).

In turn, `N#CC(=NNc1cc(C(F)(F)F)cc(C(F)(F)F)c1)C(=O)c1ccccc1` [Example 20] registered a half-inhibitory concentration (IC50) in experiment [1] of 0.5 to 10 µM. Moreover, the MIC in experiment [2] was 0.5 to 10 µM (≈ 0.193 to 3.85 µg/mL); in experiment [3] it was above 10 µM; in experiment [4], above 10 µM; in experiment [5], 0.5 to 10 µM (≈ 0.193 to 3.85 µg/mL).

In experiment [1], `N#CC(=NNc1ccc(F)cc1)C(=O)c1ccc(OC(F)(F)F)cc1` [Example 21] yielded an IC50 of 0.5 to 10 µM. Further, the MIC in experiment [2] was 0.5 to 10 µM (≈ 0.176 to 3.51 µg/mL); in experiment [3], above 10 µM; in experiment [4], above 10 µM; in experiment [5], 0.5 to 10 µM (≈ 0.176 to 3.51 µg/mL).

As to `N#CC(=NNc1ccc([N+](=O)[O-])cc1)C(=O)c1cccc(Cl)c1` [Example 22], in experiment [1], the IC50 was above 10 µM. Also, the MIC in experiment [3], in experiment [4] and in experiment [5] was above 10 µM throughout.

As to `N#CC(=NNc1ccc([N+](=O)[O-])cc1)C(=O)c1ccccc1` [Example 23], the IC50 in experiment [1] is above 10 µM. Also, the minimal inhibitory concentration (MIC) was 0.5 to 10 µM (≈ 0.147 to 2.94 µg/mL) in experiment [2], above 10 µM in experiment [3], above 10 µM in experiment [4] and 0.5 to 10 µM (≈ 0.147 to 2.94 µg/mL) in experiment [5].
